# Like-named read-outs stand apart in the source and are kept apart here.
# Columns and labels:
# [1] = Pharmacokinetic interaction study, fexuprazan and celecoxib; type: in vivo, healthy Korean male subjects; conditions: 5 days; for T max,ss / Tmax: median [minimum–maximum]; for Tmax: T max,ss; for Vd/F: V ss/F
# [2] = Safety and tolerability, adverse events, Cohort 1; type: in vivo, healthy Korean male subjects
# [3] = Safety and tolerability, adverse events, Cohort 2; type: in vivo, healthy Korean male subjects
# [4] = Safety and tolerability, adverse events, Cohort 3; type: in vivo, healthy Korean male subjects
# [5] = for AUCτ,ss / C max,ss / MR, metabolic ratio of fexuprazan (AUCτ,M14/AUCτ,fexuprazan) / V ss/F / t 1/2 / T max,ss: 5 days; for AUCτ,ss / C max,ss / MR, metabolic ratio of fexuprazan (AUCτ,M14/AUCτ,fexuprazan) / V ss/F / t 1/2: mean ± SD; for T max,ss: median [minimum–maximum]
# [6] = for T max: median [minimum–maximum]
# [7] = cited from earlier work; for intra‐subject variability for the PK parameter (C max): NSAIDs, ref previously reported
# [8] = tested on: uptake or efflux transporters; conditions: cited from earlier work
# transporters = conditions: at the effective dose of 40 mg; cited from earlier work
# [9] = cited from earlier work
# CYP2D6 = conditions: CYP isoform 2D6; cited from earlier work
# CYP2C9 = conditions: CYP isoform 2C9; cited from earlier work
# clinical = conditions: male, human, in vivo, po, 15 mg, T max,ss, 7 days, Arm E, median [minimum–maximum]
# [10] = combination: fexuprazan 40 mg BID + celecoxib 200 mg BID, Arm B, mean ± SD
# [11] = monotherapy: fexuprazan 40 mg BID, Arm B (Cohort 1), mean ± SD
# [12] = combination: fexuprazan 40 mg BID + naproxen 500 mg BID, Arm D
# [13] = monotherapy: fexuprazan 40 mg BID, Arm D (Cohort 2)
# [14] = combination: fexuprazan 40 mg BID + meloxicam 15 mg QD, 7 days, Arm F, mean ± SD
# [15] = monotherapy: fexuprazan 40 mg BID, 5 days, Arm F (Cohort 3), mean ± SD
smiles,measurement,setting,value
CNCc1cn(S(=O)(=O)c2cccc(F)c2)c(-c2ccc(F)cc2F)c1OC [Fexuprazan],"AUCτ,ss",[1]; [10],570.2 ± 255.7 µg·h/L
same,"C max,ss",[1]; [10],71.3 ± 32.4 µg/L
same,"MR, metabolic ratio of fexuprazan (AUCτ,M14/AUCτ,fexuprazan)",[1]; [10],3.82 ± 2.72
same,V ss/F,[1]; [10],1136.7 ± 730.7 L
same,t 1/2,[1]; [10],8.5 ± 0.8 h
same,"T max,ss","[1]; combination: fexuprazan 40 mg BID + celecoxib 200 mg BID, Arm B",2.5 [1.0–6.0] h
same,"AUCτ,ss",[1]; [11],555.3 ± 239.6 µg·h/L
same,"C max,ss",[1]; [11],65.6 ± 30.1 µg/L
same,"MR, metabolic ratio of fexuprazan (AUCτ,M14/AUCτ,fexuprazan)",[1]; [11],3.56 ± 2.50
same,V ss/F,[1]; [11],1203.2 ± 788.6 L
same,t 1/2,[1]; [11],8.7 ± 1.2 h
same,"T max,ss","[1]; monotherapy: fexuprazan 40 mg BID, Arm B (Cohort 1)",3.0 [1.0–6.0] h
same,percentage of subjects with AEs,[2],33.3%
same,Summary of AEs: number of events,[3],six
same,percentage of subjects with AEs,[3],33.3%
same,Summary of AEs: number of events,[4],eight
same,percentage of subjects with AEs,[4],23.5%
same,"AUCτ,ss",[5]; [12],728.7 ± 463.2 µg·h/L
same,"C max,ss",[5]; [12],89.2 ± 52.5 µg/L
same,"MR, metabolic ratio of fexuprazan (AUCτ,M14/AUCτ,fexuprazan)",[5]; [12],2.03 ± 1.25
same,V ss/F,[5]; [12],808.9 ± 503.9 L
same,t 1/2,[5]; [12],7.8 ± 1.1 h
same,"T max,ss",[5]; [12],3.0 [1.5–4.0] h
same,increase in systemic exposure,[5]; fexuprazan co-administered with naproxen vs fexuprazan alone,approximately 20%
same,"AUCτ,ss",[5]; [13],591.7 ± 271.7 µg·h/L
same,"C max,ss",[5]; [13],72.5 ± 37.0 µg/L
same,"MR, metabolic ratio of fexuprazan (AUCτ,M14/AUCτ,fexuprazan)",[5]; [13],2.65 ± 1.22
same,V ss/F,[5]; [13],1028.6 ± 506.2 L
same,t 1/2,[5]; [13],8.6 ± 0.9 h
same,"T max,ss",[5]; [13],2.5 [1.0–6.0] h
same,"AUCτ,ss",[6]; [14],674.7 ± 379.2 µg·h/L
same,"C max,ss",[6]; [14],83.2 ± 46.2 µg/L
same,V ss/F,[6]; [14],1427.7 ± 1984.4 L
same,t 1/2,[6]; [14],8.6 ± 2.1 h
same,T max,"[6]; combination: fexuprazan 40 mg BID + meloxicam 15 mg QD, 7 days, Arm F",2.5 [1.5–4.0] h
same,"AUCτ,ss",[6]; [15],728.3 ± 403.5 µg·h/L
same,"C max,ss",[6]; [15],82.8 ± 45.5 µg/L
same,"MR, metabolic ratio of fexuprazan (AUCτ,M14/AUCτ,fexuprazan)",[6]; [15],2.50 ± 1.64
same,V ss/F,[6]; [15],1161.1 ± 1231.1 L
same,t 1/2,[6]; [15],9.6 ± 2.2 h
same,T max,"[6]; monotherapy: fexuprazan 40 mg BID, 5 days, Arm F (Cohort 3)",2.5 [1.5–8.0] h
same,elimination half‐life,[7]; fexuprazan,7.5 to 9.5 h
same,substrate for uptake or efflux transporters,[8],not a substrate
same,potential for inhibitory effects on transporters,transporters,low potential
same,multiple dose with established safety and tolerability,[9]; multiple doses for 7 days,up to 160 mg
same,single dose with established safety and tolerability,[9]; single dose,up to 320 mg
Cc1ccc(-c2cc(C(F)(F)F)nn2-c2ccc(S(N)(=O)=O)cc2)cc1 [Celecoxib],AUC,"[1]; male, human, plasma, po, 200 mg, AUCτ,ss, combination: celecoxib 200 mg BID + fexuprazan 40 mg BID, Arm A, mean ± SD",8110 ± 2550 ng·h/mL
same,Cmax,"[1]; male, human, plasma, po, 200 mg, C max,ss, monotherapy: celecoxib 200 mg BID, Arm A, mean ± SD",1080 ± 315 ng/mL
same,Tmax,"[1]; male, human, plasma, po, 200 mg, combination: celecoxib 200 mg BID + fexuprazan 40 mg BID, Arm A",3 h
same,Tmax,"[1]; male, human, plasma, po, 200 mg, monotherapy: celecoxib 200 mg BID, Arm A",2.5 h
same,Vd/F,"[1]; male, human, plasma, po, 200 mg, combination: celecoxib 200 mg BID + fexuprazan 40 mg BID, Arm A, mean ± SD",358 ± 126 L
same,Vd/F,"[1]; male, human, plasma, po, 200 mg, monotherapy: celecoxib 200 mg BID, Arm A, mean ± SD",416 ± 235 L
same,half-life,"[1]; male, human, plasma, po, 200 mg, t 1/2, combination: celecoxib 200 mg BID + fexuprazan 40 mg BID, Arm A, mean ± SD",570 ± 198 min
same,half-life,"[1]; male, human, plasma, po, 200 mg, t 1/2, monotherapy: celecoxib 200 mg BID, Arm A, mean ± SD",564 ± 300 min
same,inhibitory effect of NSAIDs on the CYP isoform,CYP2D6,moderate inhibitory effects
same,intra‐subject variability for the PK parameter (C max),[7],31.8%
same,elimination half‐life,[7]; celecoxib,12.4 h
Cc1cnc(NC(=O)C2=C(O)c3ccccc3S(=O)(=O)N2C)s1 [Meloxicam],inhibitory effect of NSAIDs on the CYP isoform,CYP2C9,relatively weak inhibitor
same,intra‐subject variability for the PK parameter (C max),[7],9.8%
same,Tmax,clinical; combination: meloxicam 15 mg QD + fexuprazan 40 mg BID,4.5 h
same,Tmax,clinical; monotherapy: meloxicam 15 mg QD,5 h
COc1ccc2cc([C@H](C)C(=O)O)ccc2c1 [Naproxen],intra‐subject variability for the PK parameter (C max),[7],8.4%
